Laboratory results published in article PMC10135378, “Synthesis of Novel N-Heterocyclic Carbene-Ruthenium (II) Complexes, “Precious” Tools with Antibacterial, Anticancer and Antioxidant Properties” (Antibiotics, 2023).

Key:
[1] = test system: Escherichia coli (ATCC 25922); experiment: MIC/MBC broth dilution, E. coli; assay type: cell-based; conditions: broth dilution, 37 °C, 18 h
Experimental: (§1) One Gram-negative (Escherichia coli (ATCC® 25922TM)) and two Gram-positive bacterial strains (Enterococcus faecalis (ATCC® 19433TM) and Staphylococcus aureus (ATCC® 23235TM)] were used for MIC and MBC values determination, according to CLSI guidelines. MIC represents the lowest concentration of compound inhibiting the visible microbial growth and expressed as μg/mL; MBC is the lowest concentration able to kill the bacteria. Both determinations were performed by the broth dilution method. Bacteria were grown overnight in LB medium (2%), then diluted to a density of […] colony forming units (CFUs) per mL, plated in sterile 96-well microplates, obtaining about 10^5 cells/ well. Increasing concentrations of the Ru-NHC complexes (1, 10, 25, 50, 70, 100 µg/mL) were used. After incubation at 37 °C for 18 h (overnight), bacterial growth was checked at a wavelength of 600 nm using a Multiskan spectrophotometer (model Multiskan Ex Microplate; Thermo Scientific, Nyon, Switzerland) and MIC or MBC values were determined, comparing cell density with a positive control (bacterial cells grown in LB medium were added with only the vehicle, DMSO). Each experiment was carried out five times, in triplicate. Ampicillin (Sigma Aldrich A9393) was used as the control for strain sensitivity.

[2] = test system: SH-SY5Y cells; experiment: MTT assay, anticancer activity on SH-SY5Y neuroblastoma cells; assay type: cell-based; conditions: 72 h exposure, 0.1-100 µM
Experimental: (§2) The anticancer activity of all the synthesized Ru-NHC complexes (RANHC I-VI) was studied in two human breast cancer cell lines, namely the estrogen receptor positive (ER+) MCF-7 cells and the triple negative MDA-MB-231 cells (ER-, PR-, and HER-2/Neu not overexpressed), and neuroblastoma cells, i.e., SH-SY5Y. First, the cells were exposed for 72 h at different concentrations of the studied complexes (from 0.1 to 100 µM) and then their viability was checked by MTT assay.
(§3) The adopted cells (breast cancer MCF-7 and MDA-MB-231 and human mammary epithelial MCF-10A cells) were purchased from American Type Culture Collection (ATCC, Manassas, VA, USA) and cultured as indicated. The mouse embryonic fibroblast BALB/3T3 and neuroblastoma SH-SY5Y were also obtained from American Type Culture Collection (ATCC, Manassas, VA, USA) and cultured in DMEM high glucose supplemented with 100 U mL^−1 penicillin/streptomycin and 10% bovine calf serum (BCS) or 10% fetal bovine serum (FBS), respectively.
(§4) MTT assay (Sigma Aldrich (St. Louis, MO, USA)) was used for the in vitro anticancer activity evaluation, as previously reported. The Ru-NHC complexes were employed at different concentrations (0.1–1–10–25–50–100 μM) for 72 h. The IC50 values were calculated from the percent (%) of control using GraphPad Prism 9 (GraphPad Software, La Jolla, CA, USA).

[3] = test system: MCF-7 cells; experiment: MTT assay, anticancer activity on MCF-7 cells; assay type: cell-based, human; conditions: 72 h exposure, 0.1-100 µM
Experimental: as §2, §3, §4

[4] = test system: BALB/3T3 cells; experiment: MTT assay, non-tumoral BALB/3T3 fibroblasts; assay type: cell-based; conditions: 72 h exposure, non-tumoral mouse embryonic fibroblasts
Source text: (§5) Additionally, we investigated the selectivity of all the synthesized Ru-NHC complexes on the cancer cells by studying their capability to interfere with the growth of two non-tumoral cells, namely the MCF-10A and BALB/3T3 cells.
as §3, §4

[5] = test system: Enterococcus faecalis (ATCC 19433); experiment: MIC/MBC broth dilution, E. faecalis; assay type: cell-based; conditions: broth dilution, 37 °C, 18 h
Experimental: as §1

[6] = test system: MDA-MB-231 cells; experiment: MTT assay, anticancer activity on MDA-MB-231 cells; assay type: cell-based, human; conditions: for IC50: MTT, 72 h exposure, 0.1-100 µM; for fold more active against MDA-MB-231 than MCF-10A cells: ratio of IC50 values MCF-10A / MDA-MB-231
Experimental: as §2, §3, §4

[7] = test system: MCF-10A cells; experiment: MTT assay, non-tumoral MCF-10A cells; assay type: cell-based, human; conditions: 72 h exposure
Source text: as §5, §3, §4

[8] = test system: Staphylococcus aureus (ATCC 23235); experiment: MIC/MBC broth dilution, S. aureus; assay type: cell-based; conditions: broth dilution, 37 °C, 18 h
Experimental: as §1

[9] = DPPH radical scavenging assay; conditions: 30 min, room temperature, 517 nm
Experimental: Generally, the DPPH radical is able to accept hydrogen radicals or an electron, turning into a stable molecule. The interaction with Ru-NHC complexes induces the reduction of DPPH radical intensity measured at 517 nm, due to the conversion of the purple DPPH radical into its corresponding yellow hydrazine form.
The radical scavenging properties of Ru-NHC complexes on the 1,1-diphenyl-2-picryl-hydrazil (DPPH) radical were evaluated as described by Fazio et al., with minor corrections. Then, 20 μL of each Ru complex, properly dissolved in DMSO, were mixed with methanol DPPH 0.1 mM (180 μL) in a 48-well plate obtaining […] different concentrations (10, 50, 100, 200 and 300 µg/mL). Next, 20 μL of DMSO in 180 μL of DPPH methanol solution was diluted as the control. The mixture was vigorously shaken and incubated (room temperature, 30 min, in the dark). The scavenging activity was measured at 517 nm, using a microplate reader. DPPH radical scavenging was expressed as inhibition percentages (%IDPPH) for the Ru complexes compared to the initial concentration of DPPH (control) according to the formula: %IDPPH=A0−A/A0×100 where A0 is the absorbance at 517 nm of the control reaction and A is the absorbance at 517 nm in the presence of samples.
The obtained IDPPH percentages allowed the IC50 values determination, using GraphPad Prism 9 software (GraphPad Inc., San Diego, CA, USA). Trolox was employed as a positive control.

Compound	M.I.C. E. coli [1] [µg/mL]	IC50 [2] [µM]	IC50 [3] [µM]	IC50 [4] [µM]	M.I.C. E. faecalis [5] [µg/mL]	IC50 [6] [µM]	IC50 [7] [µM]	M.I.C. S. aureus [8] [µg/mL]	IC50 [9] [µM]	fold more active against MDA-MB-231 than MCF-10A cells [6]
CN1C=CN2CC(c3ccccc3)[O+](C)[Ru]([Cl])=[C]12.Cc1ccc(C(C)C)cc1.F[P-](F)(F)(F)(F)F (centres unmarked) [RANHC-III]	25	> 100	> 100	> 100	50	> 100	> 100	25	44.2 ± 1.2	
COC(Cn1ccn(C)[c]1=[Ru]([I])[I])c1ccccc1.Cc1ccc(C(C)C)cc1 (centres unmarked) [RANHC-II]	50	> 100	> 100	> 100	50	> 100	> 100	25	214.8 ± 1.1	
COC(Cn1ccn(C)[c]1=[Ru]1[O]C(=O)C(=O)[O]1)c1ccccc1.Cc1ccc(C(C)C)cc1 (centres unmarked) [RANHC-IV]	50	88.9 ± 0.9	> 100	> 100	50	> 100	> 100	25	512.3 ± 0.8	
COC(Cn1ccn(C)[c]1=[Ru]([Cl])[Cl])c1ccccc1.Cc1ccc(C(C)C)cc1 (centres unmarked) [RANHC-I]	50	90 ± 1.2	> 100	> 100	50	> 100	> 100	25	369.6 ± 1.1	
COC(Cn1[c](=[Ru]([Cl])[Cl])n(C)c2ccccc21)c1ccccc1.Cc1ccc(C(C)C)cc1 (centres unmarked) [RANHC-VI]	25	66.9 ± 0.8	54.8 ± 1.1	39.1 ± 1.1	50	40.6 ± 1.1	90.7 ± 1.2	25	161.6 ± 1	2.2 fold
COC(Cn1c(Cl)c(Cl)n(C)[c]1=[Ru]([Cl])[Cl])c1ccccc1.Cc1ccc(C(C)C)cc1 (centres unmarked) [RANHC-V]	50	48.4 ± 0.8	26.1 ± 0.9	> 100	70	24.1 ± 0.7	79.5 ± 1.2	25	246.2 ± 1.2	about 3.3 fold
